Experimental data published in patent US11629146B2, “Substituted [1,2,4]triazolo[4,3-a]pyrazines as modulators of sodium channel activity” (Praxis Precision Medicines, Inc., priority 2016, dated 2023).
Where two headings read alike, the source gives them in different places.

Molecular target: human NaV1.6 (hNaV1.6) (Homo sapiens (Human), UniProt Q9UQD0)
Experiment: INaL inhibition at hNaV1.6, PatchXpress electrophysiology
Format: cell-based
Method: Functional characterization of exemplary compounds to modulate INaL expressed by the Nay 1.6 voltage-gated sodium channel was accomplished using the PatchXpress™ high throughput electrophysiology platform (Molecular Devices, Sunnyvale, Calif.). HEK-293 cells expressing recombinant, human NaV1.6 (hNaV1.6) were grown in DMEM/high-glucose Dulbecco's modified, 10% FBS, 2 mM sodium pyruvate, 10 mM HEPES and 400 μg/mL G418. Cells were grown to 50%-80% confluency prior to harvesting. […] The onboard liquid handling facility of the PatchXpress was used for dispensing cells and applying test compounds. Nay late currents were evoked by the application of 300 nM ATX-II. […] INaL amplitude and stability were determined by analyzing the mean current amplitude over the final 20 ms of the test pulse. […] Percent steady-state inhibition of INaL was calculated as: [(INaL_compound)/(INaL_control)]*100, where INaL_compound and INaL_control represent INaL recorded in the presence or absence of compound, respectively.

[1] = HEK293, 1 μM, HEK-293 cells expressing hNaV1.6, late current evoked by 300 nM ATX-II, read-out: INaL v1.6 (1 μM, % Inhibition)
[2] = HEK293, read-out: INaL v1.6 (1 μM, % Inhibition)

Chain of human NaV1.6 (hNaV1.6) (Q9UQD0 whole entry): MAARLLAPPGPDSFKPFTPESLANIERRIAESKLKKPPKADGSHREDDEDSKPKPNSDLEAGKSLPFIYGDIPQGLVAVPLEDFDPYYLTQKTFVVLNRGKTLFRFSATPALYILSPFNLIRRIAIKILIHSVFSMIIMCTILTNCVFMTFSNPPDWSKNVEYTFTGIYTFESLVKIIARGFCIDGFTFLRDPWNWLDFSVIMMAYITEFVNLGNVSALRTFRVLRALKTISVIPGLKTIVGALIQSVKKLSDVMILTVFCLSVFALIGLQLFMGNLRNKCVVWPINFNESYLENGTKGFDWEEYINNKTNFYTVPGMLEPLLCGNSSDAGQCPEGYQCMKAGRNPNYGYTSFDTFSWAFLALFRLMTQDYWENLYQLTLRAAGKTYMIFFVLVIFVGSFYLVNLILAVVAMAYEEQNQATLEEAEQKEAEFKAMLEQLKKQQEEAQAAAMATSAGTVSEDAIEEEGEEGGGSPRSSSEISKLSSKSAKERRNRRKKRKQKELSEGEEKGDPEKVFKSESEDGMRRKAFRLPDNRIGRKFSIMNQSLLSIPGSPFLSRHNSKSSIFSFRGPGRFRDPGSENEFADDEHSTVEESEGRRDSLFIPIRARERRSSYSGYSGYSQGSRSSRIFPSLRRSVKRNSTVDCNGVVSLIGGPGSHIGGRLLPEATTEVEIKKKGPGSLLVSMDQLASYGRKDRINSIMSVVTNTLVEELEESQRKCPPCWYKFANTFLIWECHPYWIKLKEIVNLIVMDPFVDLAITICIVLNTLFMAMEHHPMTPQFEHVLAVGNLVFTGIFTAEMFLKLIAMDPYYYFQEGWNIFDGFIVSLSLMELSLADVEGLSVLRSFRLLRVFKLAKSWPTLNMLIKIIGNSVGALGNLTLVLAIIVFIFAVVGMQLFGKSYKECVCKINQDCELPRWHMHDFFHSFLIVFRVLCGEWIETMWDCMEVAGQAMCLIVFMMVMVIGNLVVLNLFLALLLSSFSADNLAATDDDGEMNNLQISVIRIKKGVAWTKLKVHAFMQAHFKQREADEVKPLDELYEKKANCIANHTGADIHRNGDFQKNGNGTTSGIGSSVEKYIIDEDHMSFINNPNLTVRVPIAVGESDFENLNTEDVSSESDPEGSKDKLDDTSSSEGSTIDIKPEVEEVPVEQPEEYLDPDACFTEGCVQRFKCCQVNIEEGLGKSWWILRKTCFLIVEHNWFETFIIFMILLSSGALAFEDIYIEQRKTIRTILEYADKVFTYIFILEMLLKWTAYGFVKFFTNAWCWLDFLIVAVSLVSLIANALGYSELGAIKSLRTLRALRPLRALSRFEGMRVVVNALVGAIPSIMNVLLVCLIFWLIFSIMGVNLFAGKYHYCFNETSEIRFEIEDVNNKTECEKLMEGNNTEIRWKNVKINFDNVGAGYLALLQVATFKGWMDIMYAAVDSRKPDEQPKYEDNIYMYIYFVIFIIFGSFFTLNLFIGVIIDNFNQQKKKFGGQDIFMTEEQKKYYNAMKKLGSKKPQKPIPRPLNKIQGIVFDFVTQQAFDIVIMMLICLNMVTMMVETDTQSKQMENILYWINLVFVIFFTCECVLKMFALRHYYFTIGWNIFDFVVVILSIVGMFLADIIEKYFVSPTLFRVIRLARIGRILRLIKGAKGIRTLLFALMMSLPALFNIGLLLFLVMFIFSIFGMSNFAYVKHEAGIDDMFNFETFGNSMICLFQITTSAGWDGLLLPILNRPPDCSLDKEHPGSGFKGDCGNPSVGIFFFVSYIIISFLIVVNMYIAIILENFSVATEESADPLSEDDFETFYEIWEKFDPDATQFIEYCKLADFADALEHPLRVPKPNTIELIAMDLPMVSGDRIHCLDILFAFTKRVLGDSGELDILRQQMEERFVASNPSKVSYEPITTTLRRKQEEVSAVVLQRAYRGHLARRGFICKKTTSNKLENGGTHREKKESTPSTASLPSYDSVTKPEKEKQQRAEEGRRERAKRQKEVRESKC

| SMILES | inhibition at 1 µM [1] [%] | further results |
| --- | --- | --- |
| FC(F)(F)c1nnc2cnc(-c3ccc([C@@H]4CC4(F)F)cc3)cn12 [Compound 152, 6-[4-[(1S)-2,2-difluorocyclopropyl]phenyl]-3-(trifluoromethyl)-[1,2,4]triazolo[4,3-a]pyrazine] | > 70 | – |
| COCc1cc(-c2ccc(OC(F)(F)F)cc2)nn2c(C(F)(F)F)nnc12 [Compound 163] | < 30 | – |
| COc1cc(OC(F)(F)F)ccc1-c1ccc2nnc(C(F)(F)F)n2n1 [Compound 5] | > 70 | – |
| Cc1cc(OC2CC(F)(F)C2)ccc1-c1ccc2nnc(C(F)(F)F)n2n1 [Compound 94] | 30 to 70 | – |
| COCc1cc(OC(F)(F)F)ccc1-c1ccc2nnc(C(F)F)n2n1 [Compound 137] | 30 to 70 | – |
| COCc1cc(-c2cn3c(C(F)(F)F)nnc3cn2)ccc1OC(F)(F)F [Compound 173] | 30 to 70 | – |
| Fc1cc(-c2ccc3nnc(C4CC(F)(F)C4)n3n2)cnc1OCC(F)(F)F [Compound 83] | 30 to 70 | – |
| COCc1cc(-c2ccc3nnc(C(F)F)n3n2)ccc1OC(F)(F)F [Compound 146] | 30 to 70 | – |
| CC(Oc1ncc(-c2cn3c(C(F)(F)F)nnc3cn2)cc1F)C(F)(F)F (stereo not shown) [Compound 133] | > 70 | – |
| Fc1cc(-c2cn3c(C(F)(F)F)nnc3cn2)ccc1OC(F)(F)F [Compound 79] | > 70 | – |
| Cc1ccc(OC(F)(F)F)cc1-c1ccc2nnc(C(F)(F)F)n2n1 [Compound 36] | < 30 | – |
| FC(F)(F)Oc1ccc(-c2cnc3nnc(C(F)(F)F)n3c2)cc1 [Compound 54] | < 30 | – |
| COCc1cc(-c2ccc3nnc(C(F)F)n3n2)ccc1C(F)(F)F [Compound 159] | 30 to 70 | – |
| FC(F)(F)Oc1ccc(-c2cc(Cl)c3nnc(C(F)(F)F)n3n2)cc1 [Compound 189] | < 30 | – |
| COCc1cc(-c2ccc3nnc(C(F)(F)F)n3n2)ccc1C(F)(F)F [Compound 158] | 30 to 70 | – |
| FC(F)(F)Oc1ccc(-c2cnc3nncn3c2)cc1 [Compound 55] | < 30 | – |
| COCc1cc(-c2cn3c(C(F)F)nnc3cn2)ccc1OC(F)(F)F [Compound 144] | < 30 | – |
| COC(F)(F)c1nnc2cnc(-c3ccc(OC(F)(F)F)cc3)cn12 [Compound 97] | > 70 | – |
| FC(F)(F)c1ccc(-c2cn3c(C(F)(F)F)nnc3cn2)cc1 [Compound 62] | 30 to 70 | – |
| Fc1cc(-c2ccc3nnc(C4(F)CC4)n3n2)cnc1OCC(F)(F)F [Compound 88] | 30 to 70 | – |
| CCOc1ccc(-c2cn3c(C(F)(F)F)nnc3cn2)cc1 [Compound 74] | < 30 | – |
| FC(F)(F)COc1ccc(-c2cn3c(C(F)(F)F)nnc3cn2)cn1 [Compound 179] | 30 to 70 | – |

| SMILES | inhibition at 1 µM [1] [%] | further results |
| --- | --- | --- |
| COc1cc(OC(F)(F)F)ccc1-c1cn2c(C(F)F)nnc2cn1 [Compound 48] | < 30 | – |
| FC(F)(F)Oc1ccc(-c2cn3c(C[C@H]4CCCCO4)nnc3cn2)cc1 [Compound 129, 3-[[(2R)-tetrahydropyran-2-yl]methyl]-6-[4-(trifluoromethoxy)phenyl]-[1,2,4]triazolo[4,3-a]pyrazine] | < 30 | – |
| COCc1cc(C(F)(F)F)ccc1-c1cn2c(C(F)F)nnc2cn1 [Compound 141] | 30 to 70 | – |
| FC(F)(F)c1nnc2ccc(-c3ccc([C@H]4CC4(F)F)cc3)nn12 [Compound 121, 6-[4-[(1R)-2,2-difluorocyclopropyl]phenyl]-3-(trifluoromethyl)-[1,2,4]triazolo[4,3-b]pyridazine] | – | inhibition at 1 µM [2]: > 70% |
| FC(F)c1nnc2cnc(-c3ccc([C@@H]4CC4(F)F)cc3)cn12 [Compound 167, 6-[4-[(1S)-2,2-difluorocyclopropyl]phenyl]-3-(difluoromethyl)-[1,2,4]triazolo[4,3-a]pyrazine] | 30 to 70 | – |
| FC(F)(F)Oc1ccc(-c2cn3c(C[C@H]4CCCOC4)nnc3cn2)cc1 (single isomer, unassigned) [Compound 154] | < 30 | – |
| COCc1ccc(-c2cn3c(C(F)F)nnc3cn2)cc1 [Compound 170] | < 30 | – |
| Cc1nc(-c2ccc(OC(F)(F)F)cc2)cn2c(C(F)(F)F)nnc12 [Compound 168, 8-methyl-6-[4-(trifluoromethoxy)phenyl]-3-(trifluoromethyl)-[1.2.4]triazolo[4,3-a]pyrazine] | 30 to 70 | – |
| C[C@@H](Oc1ncc(-c2cn3c(C(F)F)nnc3cn2)cc1F)C(F)(F)F [Compound 134] | – | INaL v1.6 (1 μM, % Inhibition) (1 μM, HEK-293 cells expressing hNaV1.6, late current evoked by 300 nM ATX-II): C (inhibition of greater than 70%) |
| COCc1ccc(-c2cn3c(C(F)(F)F)nnc3cn2)cc1 [Compound 180] | < 30 | – |
| FC(F)c1nnc2cnc(-c3ccc([C@H]4CC4(F)F)cc3)cn12 [Compound 166, 6-[4-[(1R)-2,2-difluorocyclopropyl]phenyl]-3-(difluoromethyl)-[1,2,4]triazolo[4,3-a]pyrazine] | 30 to 70 | – |
| COCc1cc(OC(F)(F)F)ccc1-c1cn2c(C(F)F)nnc2cn1 [Compound 142] | > 70 | – |
| Fc1cc(-c2cn3c(C(F)(F)F)nnc3cn2)ccc1OC1CC(F)(F)C1 [Compound 194] | 30 to 70 | – |
| FC(F)(F)Oc1ccc(-c2cn3c([C@H]4CCOC4)nnc3cn2)cc1 [Compound 160, 3-[(3R)-tetrahydrofuran-3-yl]-6-[4-(trifluoromethoxy)phenyl]-[1,2,4]triazolo[4,3-a]pyrazine] | < 30 | – |
| FC(F)(F)Oc1ccc(-c2nn3c(C(F)(F)F)nnc3cc2Cl)cc1 [Compound 162, 7-chloro-6-[4-(trifluoromethoxy)phenyl]-3-(trifluoromethyl)-[1,2,4]triazolo[4,3-b]pyridazine] | > 70 | – |
| CC(Oc1ncc(-c2ccc3nnc(C(F)(F)F)n3n2)cc1F)C(F)(F)F (stereo not shown) [Compound 128] | > 70 | – |
| N#CC1(c2ccc(-c3ccc4nnc(C(F)(F)F)n4n3)cc2F)CC1 [Compound 104] | – | inhibition at 1 µM [2]: < 30% |
| FC(F)c1nnc2cnc(-c3ccc(OCC(F)(F)F)nc3)cn12 [Compound 50] | 30 to 70 | – |
| COC(C)(C)c1ccc(-c2cn3c(C(F)F)nnc3cn2)cc1 [Compound 51] | < 30 | – |
| FC(F)(F)Oc1ccc(-c2cn3c(C(F)(F)F)nnc3cn2)cc1 [Compound 56] | > 70 | – |
| O=C(O)c1cc2nnc(C(F)(F)F)n2nc1-c1ccc(OC(F)(F)F)cc1 [Compound 184, 6-[4-(trifluoromethoxy)phenyl]-3-(trifluoromethyl)-[1,2,4]triazolo[4,3-b]pyridazine-7-carboxylic acid] | < 30 | – |
| FC(F)(F)Oc1ccc(Cl)c(-c2ccc3nnc(C(F)(F)F)n3n2)c1 [Compound 35] | < 30 | – |

| SMILES | inhibition at 1 µM [1] [%] | further results |
| --- | --- | --- |
| FC(F)c1nnc2cnc(-c3ccc(OC(F)(F)F)cc3)cn12 [Compound 47] | 30 to 70 | – |
| O=C(Cc1nnc2cnc(-c3ccc(OC(F)(F)F)cc3)cn12)N1CCCC1 [Compound 114] | 30 to 70 | – |
| OCc1ccc(-c2ccc3nnc(C(F)F)n3n2)cc1 [Compound 169, [4-[3-(difluoromethyl)-[1,2,4]triazolo[4,3-b]pyridazin-6-yl]phenyl]methanol] | < 30 | – |
| COCc1cc2nnc(C(F)(F)F)n2nc1-c1ccc(OC(F)(F)F)cc1 [Compound 143] | < 30 | – |
| FC(F)c1nnc2cnc(-c3ccc(COC(F)(F)F)cc3)cn12 [Compound 197] | 30 to 70 | – |
| N#CC1(c2ccc(-c3cn4c(C(F)(F)F)nnc4cn3)cc2)CC1 [Compound 67] | < 30 | – |
| COCc1cc(-c2cn3c(C(F)(F)F)nnc3cn2)ccc1C(F)(F)F [Compound 157] | 30 to 70 | – |
| Fc1cc(-c2ccc3nnc(C4CC4)n3n2)cnc1OCC(F)(F)F [Compound 103] | 30 to 70 | – |
| CC(C)OCc1ccc(-c2cn3c(C(F)(F)F)nnc3cn2)cc1 [Compound 195] | < 30 | – |
| Fc1cc2nnc(C(F)(F)F)n2nc1-c1ccc(OC(F)(F)F)cc1 [Compound 187] | > 70 | – |
| Cc1cc2nnc(C(F)(F)F)n2nc1-c1ccc(OC(F)(F)F)cc1 [Compound 140, 7-methyl-6-[4-(trifluoromethoxy)phenyl]-3-(trifluoromethyl)-[1,2,4]triazolo[4,3-b]pyridazine] | 30 to 70 | – |
| Fc1cc(-c2ccc3nnc(C(F)(F)F)n3n2)cnc1C(F)(F)F [Compound 99] | < 30 | – |
| COc1cc(OC(F)(F)F)ccc1-c1cn2c(C(F)(F)F)nnc2cn1 [Compound 70] | 30 to 70 | – |
| COc1cc(C(F)(F)F)ccc1-c1ccc2nnc(C(F)(F)F)n2n1 [Compound 89] | > 70 | – |
| FCCc1nnc2cnc(-c3ccc(OC(F)(F)F)cc3)cn12 [Compound 119] | < 30 | – |
| N#Cc1ccc(OC(F)(F)F)cc1-c1ccc2nnc(C(F)(F)F)n2n1 [Compound 40] | < 30 | – |
| N#Cc1cc(C(F)(F)F)ccc1-c1ccc2nnc(C(F)(F)F)n2n1 [Compound 4] | < 30 | – |
| FC(F)(F)Oc1ccc(-c2ccc3nnc(C(F)(F)F)n3n2)c(C2COC2)c1 [Compound 32] | 30 to 70 | – |
| FC(F)(F)c1nnc2cnc(-c3ccc([C@H]4CC4(F)F)cc3)cn12 [Compound 151, 6-[4-[(1R)-2,2-difluorocyclopropyl]phenyl]-3-(trifluoromethyl)-[1,2,4]triazolo[4,3-a]pyrazine] | 30 to 70 | – |
| FC(F)(F)Oc1ccc(-c2ccc3nnc(CC4CCOCC4)n3n2)cc1 [Compound 39] | – | inhibition at 1 µM [2]: < 30% |
